Experimental data: patent publication US20250197399A1, “COMPOUNDS, COMPOSITIONS, AND METHODS” (Tenvie Therapeutics, Inc., priority 2022, published 2025)
Where two headings read alike, the source gives them in different places.

Test system: NLRP3
Experiment: IL-1β secretion assay in PMA-differentiated, LPS/nigericin-stimulated THP-1 cells (ELISA)
Assay type: cell-based
Conditions: Homo sapiens, THP-1, THP-1 cells, 25 ng/mL LPS then nigericin, IL-1β in supernatant
In short: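 PMA-differentiated (5 ng/mL, 40 h) THP-1 cells primed with 25 ng/mL LPS in serum-free medium for 2 h, then compound (0.5% DMSO) for 1 h before nigericin, 2 h at 37 °C. Supernatant IL-1β measured by sandwich ELISA; dose-response normalized to LPS+nigericin high and LPS-only low controls.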

[1] = read-out: Activity (IC50 class)

Structure (SMILES)	IC50 (read-out: Activity)	IC50 [1]
O=C(CN1CC2(CC2)c2cc(Br)ccc2C1=O)Nc1ncc2nc[nH]c2n1 [Example 55, 2-(6-bromo-1-oxospiro[3H-isoquinoline-4,1′-cyclopropane]-2-yl)-N-(9H-purin-2-yl)acetamide]	114 nM	< 1000 nM
O=C(CN1CC2(CC2)c2cc(Br)ccc2C1=O)Nc1ncc2c(C(F)(F)F)n[nH]c2n1 [Example 58, 2-(6-bromo-1-oxospiro[3H-isoquinoline-4,1′-cyclopropane]-2-yl)-N-[3-(trifluoromethyl)-1H-pyrazolo[3,4-d]pyrimidin-6-yl]acetamide]	279 nM	< 1000 nM
COC(=O)C12CC(NC(=O)CN3CC4(CC4)c4cc(Br)ccc4C3=O)(C1)C2 [Example 60, methyl 3-[[2-(6-bromo-1-oxospiro[3H-isoquinoline-4,1′-cyclopropane]-2-yl)acetyl]amino]bicyclo[1.1.1]pentane-1-carboxylate]	216 nM	< 1000 nM
O=C(CN1CC2(CC2)c2c(ccc(Br)c2F)C1=O)Nc1ccc2nn[nH]c2c1 [Example 61, N-(3H-benzotriazol-5-yl)-2-(6-bromo-5-fluoro-1-oxospiro[3H-isoquinoline-4,1′-cyclopropane]-2-yl)acetamide]	162 nM	< 1000 nM
O=C(CN1CC2(CC2)c2c(ccc(Br)c2F)C1=O)Nc1ncc2nc[nH]c2n1 [Example 62, 2-(6-bromo-5-fluoro-1-oxospiro[3H-isoquinoline-4,1′-cyclopropane]-2-yl)-N-(9H-purin-2-yl)acetamide]	80 nM	< 1000 nM

More lines, now with the values ahead:

IC50 (read-out: Activity)	IC50 [1]	Structure (SMILES)
5 nM	< 1000 nM	O=C(CN1C[C@]2(C[C@H]2F)c2cc(Br)ccc2C1=O)Nc1ncc2cn[nH]c2n1 [Example 54, 2-[(2′R,4S)-6-bromo-2′-fluoro-1-oxospiro[3H-isoquinoline-4,1′-cyclopropane]-2-yl]-N-(1H-pyrazolo[3,4-d]pyrimidin-6-yl)acetamide]
322 nM	< 1000 nM	O=C(CN1CC2(CC2)c2cc(Br)ccc2C1=O)Nc1nc2[nH]ncc2cc1F [Example 59, 2-(6-bromo-1-oxospiro[3H-isoquinoline-4,1′-cyclopropane]-2-yl)-N-[5-fluoro-1H-pyrazolo[3,4-b]pyridin-6-yl]acetamide]
34 nM	< 1000 nM	O=C(CN1CC2(CC2(F)F)c2cc(Br)ccc2C1=O)Nc1ncc2cn[nH]c2n1 (stereo not shown) [Example 63, 2-(6-bromo-1′,1′-difluoro-1-oxospiro[3H-isoquinoline-4,2′-cyclopropane]-2-yl)-N-(1H-pyrazolo[3,4-d]pyrimidin-6-yl)acetamide]
